According to ChEMBL document CHEMBL1177795, “Synthesis of two marine farnesylacetones that dilate the basilar arteries of rabbits” (Bioorg Med Chem Lett, 2010):
pEC50: −log10 of the molar value.

Key:
[1] = Vasorelaxant activity against depolarization-induced basilar artery constriction in white rabbit at 10 uM; format: functional, Oryctolagus cuniculus; set-up: scale not given: the % may be the effect or the level left
[2] = Vasorelaxant activity against depolarization-induced basilar artery constriction in white rabbit; format: functional, tissue-based, Oryctolagus cuniculus

SMILES | Activity [1] | pEC50 [2]
C/C(=C\C=O)CCC/C(C)=C/CCC1(C)OCCO1 | 20.1% | –
CC(=O)CC/C=C(\C)CCC/C(C)=C/C=O | 12.6% | –
C/C(=C\CCC1(C)OCCO1)CCC/C(C)=C/C(O)CC(C)C (stereo unspecified) | 99.8% | 5.85
CC(=O)CC/C=C(\C)CCC/C(C)=C/C(O)CC(C)C (stereo unspecified) | 98.9% | 5.62
CC(=O)CC/C=C(\C)CC/C=C(\C)CC#N | 13.1% | –
C/C(=C\CC/C(C)=C/CCC1(C)OCCO1)CC#N | 33.5% | –
C/C(=C\C#N)CCC/C(C)=C/CCC1(C)OCCO1 | 44.6% | –
CC(=O)CC/C=C(\C)CCC/C(C)=C/C#N | 10.3% | –
C/C(=C\CCC1(C)OCCO1)CCC/C(C)=C/C(=O)CC(C)C | 83.3% | –
